Measured values as given in patent US10676479B2, “Imidazolepyridine compounds and uses thereof” (Novartis AG, priority 2016, dated 2020).

How the values were obtained:
[1] = system: H3K27 methylation in G401 cell; assay: ELISA (H3K27 methylation) assay; format: cell-based; conditions: Homo sapiens, G-401, ELISA Qualified assay, 48 h, read-out: (c) IC50
Method in brief: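 G401 cells given 3-fold serial dilutions (eight or twelve points, top 20 μM) for 48 h. Lysate ELISA for H3K27 methylation normalized to H3 signal, % inhibition versus DMSO, IC50 from dose-response fit.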

EED (1-441)-His protein = EED (1-441)-His protein (Homo sapiens (Human), UniProt O75530); assay: EED-H3K27Me3 peptide competition binding assay by AlphaScreen; conditions: EED Alphascreen binding Qualified assay
Chain of EED (1-441)-His protein (O75530 whole entry): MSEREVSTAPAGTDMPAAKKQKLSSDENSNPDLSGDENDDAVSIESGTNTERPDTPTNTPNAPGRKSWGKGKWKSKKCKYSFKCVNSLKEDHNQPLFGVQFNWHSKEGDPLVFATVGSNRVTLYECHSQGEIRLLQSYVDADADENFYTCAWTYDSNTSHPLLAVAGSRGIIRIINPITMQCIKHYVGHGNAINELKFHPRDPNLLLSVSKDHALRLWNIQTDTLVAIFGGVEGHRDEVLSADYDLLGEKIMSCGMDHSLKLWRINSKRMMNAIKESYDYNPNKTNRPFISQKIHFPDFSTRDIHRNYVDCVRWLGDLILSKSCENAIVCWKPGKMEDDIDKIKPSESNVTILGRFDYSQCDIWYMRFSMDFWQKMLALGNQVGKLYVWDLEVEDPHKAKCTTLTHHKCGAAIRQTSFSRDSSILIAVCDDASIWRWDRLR

[2] = target: wild type PRC2 (wtPRC2) complex (Homo sapiens (Human), UniProt O75530); assay: EED LC-MS assay; format: biochemical; conditions: EED LC-MS Qualified assay; read-out: (b) IC50
Chain of wild type PRC2 (wtPRC2) complex (O75530 whole entry): as above
Chain of wild type PRC2 (wtPRC2) complex (Q15910 whole entry partner): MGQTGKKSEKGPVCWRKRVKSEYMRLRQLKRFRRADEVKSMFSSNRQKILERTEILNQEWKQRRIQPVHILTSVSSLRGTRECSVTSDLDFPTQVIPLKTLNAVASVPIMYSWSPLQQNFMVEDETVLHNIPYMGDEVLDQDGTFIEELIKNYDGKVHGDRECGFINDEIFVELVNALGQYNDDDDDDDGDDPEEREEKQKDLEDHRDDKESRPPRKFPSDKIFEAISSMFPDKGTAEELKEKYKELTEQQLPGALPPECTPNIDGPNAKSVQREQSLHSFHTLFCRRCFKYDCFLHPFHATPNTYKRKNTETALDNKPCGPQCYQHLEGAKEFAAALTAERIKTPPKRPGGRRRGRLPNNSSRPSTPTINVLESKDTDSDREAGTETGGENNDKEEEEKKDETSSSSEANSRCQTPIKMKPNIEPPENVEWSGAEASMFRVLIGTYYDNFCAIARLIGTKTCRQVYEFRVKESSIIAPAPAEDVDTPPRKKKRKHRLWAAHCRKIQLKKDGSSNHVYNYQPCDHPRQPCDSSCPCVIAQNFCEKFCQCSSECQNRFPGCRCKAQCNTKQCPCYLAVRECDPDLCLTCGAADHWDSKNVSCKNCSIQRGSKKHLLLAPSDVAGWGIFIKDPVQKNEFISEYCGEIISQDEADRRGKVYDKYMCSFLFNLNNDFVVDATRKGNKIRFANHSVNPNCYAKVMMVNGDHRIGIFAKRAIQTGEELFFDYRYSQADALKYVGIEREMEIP
Chain of wild type PRC2 (wtPRC2) complex (Q15022 whole entry partner): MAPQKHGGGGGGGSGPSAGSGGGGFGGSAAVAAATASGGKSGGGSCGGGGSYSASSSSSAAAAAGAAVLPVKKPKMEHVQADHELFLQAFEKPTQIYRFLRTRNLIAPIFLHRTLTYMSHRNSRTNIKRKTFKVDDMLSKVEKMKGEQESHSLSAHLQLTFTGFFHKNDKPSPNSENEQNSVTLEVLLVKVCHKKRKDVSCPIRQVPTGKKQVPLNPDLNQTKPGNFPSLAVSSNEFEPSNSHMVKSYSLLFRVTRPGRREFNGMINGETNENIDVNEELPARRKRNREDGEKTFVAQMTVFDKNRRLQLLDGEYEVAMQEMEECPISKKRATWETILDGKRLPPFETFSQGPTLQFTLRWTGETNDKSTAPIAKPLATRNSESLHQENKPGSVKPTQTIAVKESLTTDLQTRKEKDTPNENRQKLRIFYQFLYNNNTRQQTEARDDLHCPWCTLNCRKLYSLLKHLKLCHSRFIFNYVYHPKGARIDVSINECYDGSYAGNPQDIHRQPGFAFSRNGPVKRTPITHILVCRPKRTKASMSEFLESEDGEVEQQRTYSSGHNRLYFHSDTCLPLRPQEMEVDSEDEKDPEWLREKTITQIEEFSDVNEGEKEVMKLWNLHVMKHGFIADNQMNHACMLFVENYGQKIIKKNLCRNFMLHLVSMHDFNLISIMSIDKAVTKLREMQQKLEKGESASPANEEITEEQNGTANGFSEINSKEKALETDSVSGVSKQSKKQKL
Method: EED LC-MS Assay Representative compounds of the present invention were serially and separately diluted 3-fold in DMSO to obtain a total of eight or twelve concentrations. […] A 6 μL solution of 3 μM of the peptide substrate H3K27Me0 (histone H3[21-44]-biotin) in reaction buffer was added to initiate each reaction. […] The data were then fit to a dose response equation using the program Helios to get the IC50 values of the test compound.

SMILES	IC50 [1] [nM]	IC50 (EED (1-441)-His protein) [nM]	IC50 [2] [nM]
Cc1ncncc1-c1cnc(NCc2c(F)ccc3c2CCO3)n2cncc12 [Example 47, N-((5-fluoro-2,3-dihydrobenzofuran-4-yl)methyl)-8-(4-methylpyrimidin-5-yl)imidazo[1,5-c]pyrimidin-5-amine]	42.4	8.1	14.3
Cc1c(-c2cnc(NCc3c(F)ccc4c3CCO4)n3cncc23)ccnc1CF [Example 58, N-((5-fluoro-2,3-dihydrobenzofuran-4-yl)methyl)-8-(2-(fluoromethyl)-3-methylpyridin-4-yl)imidazo[1,5-c]pyrimidin-5-amine]	36.1	14.9	25.2
Fc1ccc2c(c1CNc1ncc(-c3cnccc3C(F)F)c3cncn13)CCO2 [Example 52, 8-(4-(difluoromethyl)pyridin-3-yl)-N-((5-fluoro-2,3-dihydrobenzofuran-4-yl)methyl)imidazo[1,5-c]pyrimidin-5-amine]	42.5	10.2	17.8
Cc1cc(-c2cnc(NCc3c(F)ccc4c3CCO4)n3cncc23)ccc1S(C)(=O)=O [Example 48, N-((5-fluoro-2,3-dihydrobenzofuran-4-yl)methyl)-8-(3-methyl-4-(methylsulfonyl)phenyl)imidazo[1,5-c]pyrimidin-5-amine]	34.1	10.5	16.4
Cc1ncc(-c2cnc(NCc3c(F)ccc4c3CCO4)n3cnc([S+]([O-])c4ccccc4)c23)c(C)n1 (stereo not drawn) [Example 14, 8-(2,4-Dimethylpyrimidin-5-yl)-N-((5-fluoro-2,3-dihydrobenzofuran-4-yl)methyl)-1-(phenylsulfinyl)imidazo[1,5-c]pyrimidin-5-amine]	4.9	10.4	23.4
Cc1ncccc1-c1cnc(NCc2c(F)ccc3c2CCO3)n2cnc(-c3ccccc3)c12 [Example 111, N-((5-fluoro-2,3-dihydrobenzofuran-4-yl)methyl)-8-(2-methylpyridin-3-yl)-1-phenylimidazo[1,5-c]pyrimidin-5-amine]	23.8	7.6	9.6
CC(c1ccc(-c2cnc(NCc3c(F)ccc4c3CCO4)n3cnc(C#N)c23)cc1)N1CCCC1 (stereo not drawn) [Example 76, 5-(((5-fluoro-2,3-dihydrobenzofuran-4-yl)methyl)amino)-8-(4-(1-(pyrrolidin-1-yl)ethyl)phenyl)imidazo[1,5-c]pyrimidine-1-carbonitrile]	5.4	5.6	15.3
Cn1cncc1-c1cnc(NCc2c(F)ccc3c2CCO3)n2cnc(C#N)c12 [Example 85, 5-(((5-fluoro-2,3-dihydrobenzofuran-4-yl)methyl)amino)-8-(1-methyl-1H-imidazol-5-yl)imidazo[1,5-c]pyrimidine-1-carbonitrile]	2.8	4.5	17.2
Cc1ncc(-c2cnc(NCc3c(F)ccc4c3CCO4)n3cnc(CO)c23)c(C)n1 [Example 8, (8-(2,4-Dimethylpyrimidin-5-yl)-5-(((5-fluoro-2,3-dihydrobenzofuran-4-yl)methyl)amino)imidazo[1,5-c]pyrimidin-1-yl)methanol]	30.4	11.6	18.6
Cc1ncccc1-c1cnc(NCc2c(F)ccc3c2CCO3)n2cnc(CO)c12 [Example 120, (5-(((5-fluoro-2,3-dihydrobenzofuran-4-yl)methyl)amino)-8-(2-methylpyridin-3-yl)imidazo[1,5-c]pyrimidin-1-yl)methanol]	15.6	11.4	24.1
Cc1cn(-c2cnc(NCc3c(F)ccc4c3CCO4)n3cncc23)cn1 [Example 62, N-((5-fluoro-2,3-dihydrobenzofuran-4-yl)methyl)-8-(4-methyl-1H-imidazol-1-yl)imidazo[1,5-c]pyrimidin-5-amine]	13.2	3.7	6.6
Fc1ccc2c(c1CNc1ncc(-c3cccnc3)c3cncn13)CCO2 [Example 28, N-((5-fluoro-2,3-dihydrobenzofuran-4-yl)methyl)-8-(pyridin-3-yl)imidazo[1,5-c]pyrimidin-5-amine]	50.6	19.9	21.8
OCCNc1ncc(-c2cnc(NCc3c(F)ccc4c3CCO4)n3cncc23)cn1 [Example 44, 2-((5-(5-(((5-fluoro-2,3-dihydrobenzofuran-4-yl)methyl)amino)imidazo[1,5-c]pyrimidin-8-yl)pyrimidin-2-yl)amino)ethan-1-ol]	64.5	8.6	19.5
N#Cc1ncn2c(NCc3c(F)ccc4c3CCO4)ncc(-n3ccnc3)c12 [Example 119, 5-(((5-fluoro-2,3-dihydrobenzofuran-4-yl)methyl)amino)-8-(1H-imidazol-1-yl)imidazo[1,5-c]pyrimidine-1-carbonitrile]	18.8	18.1	44.7
N#Cc1ncn2c(NCc3c(F)ccc4c3CCO4)ncc(-c3cccnc3C(F)F)c12 [Example 73, 8-(2-(difluoromethyl)pyridin-3-yl)-5-(((5-fluoro-2,3-dihydrobenzofuran-4-yl)methyl)amino)imidazo[1,5-c]pyrimidine-1-carbonitrile]	55.3	23.5	56.4
Cc1nc(N2CCOCC2)ncc1-c1cnc(NCc2c(F)ccc3c2CCO3)n2cnc(C#N)c12 [Example 84, 5-(((5-fluoro-2,3-dihydrobenzofuran-4-yl)methyl)amino)-8-(4-methyl-2-morpholinopyrimidin-5-yl)imidazo[1,5-c]pyrimidine-1-carbonitrile]	11.7	2.4	11
Cc1nc(C(F)F)ccc1-c1cnc(NCc2c(F)ccc3c2CCO3)n2cncc12 [Example 57, 8-(6-(difluoromethyl)-2-methylpyridin-3-yl)-N-((5-fluoro-2,3-dihydrobenzofuran-4-yl)methyl)imidazo[1,5-c]pyrimidin-5-amine]	54.1	7.5	12.5
c1cc(CNc2ncc(-c3ccncc3)c3cncn23)c2ccoc2c1 [Example 65, N-(benzofuran-4-ylmethyl)-8-(pyridin-4-yl)imidazo[1,5-c]pyrimidin-5-amine]	641	285	93.2
Cc1cc(-c2cnc(NCc3c(F)ccc4c3CCO4)n3cnc(C#N)c23)n(C)n1 [Example 5, 8-(1,3-Dimethyl-1H-pyrazol-5-yl)-5-(((5-fluoro-2,3-dihydrobenzofuran-4-yl)methyl)amino)imidazo[1,5-c]pyrimidine-1-carbonitrile]	3.2	3.5	8.9
CS(=O)(=O)c1cccc(-c2cnc(NCc3c(F)ccc4c3CCO4)n3cncc23)c1 [Example 27, N-((5-fluoro-2,3-dihydrobenzofuran-4-yl)methyl)-8-(3-(methylsulfonyl)phenyl)imidazo[1,5-c]pyrimidin-5-amine]	43	24.1	23.5
Cc1nn(CCO)c(C)c1-c1cnc(NCc2c(F)ccc3c2CCO3)n2cncc12 [Example 49, 2-(4-(5-(((5-fluoro-2,3-dihydrobenzofuran-4-yl)methyl)amino)imidazo[1,5-c]pyrimidin-8-yl)-3,5-dimethyl-1H-pyrazol-1-yl)ethan-1-ol]	20.4	7.9	13.5
O=C(c1ccc(-c2cnc(NCc3c(F)ccc4c3CCO4)n3cncc23)cc1)N1CCCC1 [Example 37, (4-(5-(((5-fluoro-2,3-dihydrobenzofuran-4-yl)methyl)amino)imidazo[1,5-c]pyrimidin-8-yl)phenyl)(pyrrolidin-1-yl)methanone]	81.9	16.2	41.9
Cc1nc(S(C)(=O)=O)ccc1-c1cnc(NCc2c(F)ccc3c2CCO3)n2cncc12 [Example 38, N-((5-fluoro-2,3-dihydrobenzofuran-4-yl)methyl)-8-(2-methyl-6-(methylsulfonyl)pyridin-3-yl)imidazo[1,5-c]pyrimidin-5-amine]	47.7	9.4	20.8
Cc1ncccc1-c1cnc(NCc2c(F)ccc3c2CCO3)n2cnc(C(=O)NN)c12 [Example 108, 5-(((5-fluoro-2,3-dihydrobenzofuran-4-yl)methyl)amino)-8-(2-methylpyridin-3-yl)imidazo[1,5-c]pyrimidine-1-carbohydrazide]	13.1	7	13.6
CN1CCN(c2ccc(-c3cnc(NCc4c(F)ccc5c4CCO5)n4cncc34)cn2)CC1 [Example 40, N-((5-fluoro-2,3-dihydrobenzofuran-4-yl)methyl)-8-(6-(4-methylpiperazin-1-yl)pyridin-3-yl)imidazo[1,5-c]pyrimidin-5-amine]	66	17.7	28.2
CS(=O)(=O)c1ccc(-c2cnc(NCc3c(F)ccc4c3CCO4)n3cncc23)cc1 [Example 19, N-((5-fluoro-2,3-dihydrobenzofuran-4-yl)methyl)-8-(4-(methylsulfonyl)phenyl)imidazo[1,5-c]pyrimidin-5-amine]	60.1	8.5	10.4
Cc1ncc(-c2cnc(NCc3c(F)ccc4c3CCO4)n3cnc(C#N)c23)c(C)n1 [Example 3, 8-(2,4-dimethylpyrimidin-5-yl)-5-(((5-fluoro-2,3-dihydrobenzofuran-4-yl)methyl)amino)imidazo[1,5-c]pyrimidine-1-carbonitrile]	13.2	6.8	13.7
